Measured values: ChEMBL document CHEMBL3992543, “New quinolinic derivatives as melatonergic ligands: Synthesis and pharmacological evaluation” (Eur J Med Chem, 2017)

How the values were obtained:
[1] = target: T1, Melatonin receptor type 1A (Homo sapiens, UniProt P48039); assay: Displacement of 2-[125I]iodomelatonin from human MT1 receptor expressed in HEK or CHO cell membranes after 120 mins
[2] = target: T2, Melatonin receptor type 1B (Homo sapiens, UniProt P49286); assay: Displacement of 2-[125I]iodomelatonin from human MT2 receptor expressed in HEK or CHO cell membranes after 120 mins
T2 sequence (P49286 whole entry): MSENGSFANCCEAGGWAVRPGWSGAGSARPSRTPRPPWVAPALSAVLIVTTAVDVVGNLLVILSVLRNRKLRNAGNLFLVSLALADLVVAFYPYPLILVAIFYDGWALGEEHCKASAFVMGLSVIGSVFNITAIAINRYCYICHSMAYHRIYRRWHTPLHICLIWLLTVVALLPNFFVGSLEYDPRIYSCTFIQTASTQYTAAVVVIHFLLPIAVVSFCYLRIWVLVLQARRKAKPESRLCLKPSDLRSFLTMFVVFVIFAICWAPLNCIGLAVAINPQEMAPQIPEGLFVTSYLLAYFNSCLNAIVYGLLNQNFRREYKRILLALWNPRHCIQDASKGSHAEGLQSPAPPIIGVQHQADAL

[3] = target: T1, Melatonin receptor type 1A; assay: Intrinsic activity at human MT1 receptor expressed in CHO cell membranes after 1 hr by [35S]GTPgammaS binding assay; type: functional
[4] = target: T2, Melatonin receptor type 1B; assay: Intrinsic activity at human MT2 receptor expressed in CHO cell membranes after 1 hr by [35S]GTPgammaS binding assay; type: functional
Homo sapiens = species on record: Homo sapiens; assay: Selectivity ratio of Ki for human MT1 receptor to Ki for human MT2 receptor

T1 sequence (P48039 whole entry): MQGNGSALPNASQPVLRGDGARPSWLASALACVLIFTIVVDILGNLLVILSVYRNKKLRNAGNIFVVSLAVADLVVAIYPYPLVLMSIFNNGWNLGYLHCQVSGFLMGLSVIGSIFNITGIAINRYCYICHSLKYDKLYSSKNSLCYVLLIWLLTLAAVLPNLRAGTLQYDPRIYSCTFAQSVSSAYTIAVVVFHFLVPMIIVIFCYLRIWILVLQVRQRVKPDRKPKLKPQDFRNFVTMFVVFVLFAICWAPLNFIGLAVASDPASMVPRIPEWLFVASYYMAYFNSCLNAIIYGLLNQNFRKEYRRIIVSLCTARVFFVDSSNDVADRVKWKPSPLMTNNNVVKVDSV

Row | Compound | Ki [1] [nM] | Ki [2] [nM] | EC50 [3] [nM] | EC50 [4] [nM] | Ratio Ki (Homo sapiens)
1 | COc1ccc2cccc(CCC(=O)NCCF)c2n1 | 19 | 0.3 | – | – | –
2 | CCNC(=O)NCCc1cccc2ncc(OC)cc12 | 575 | 73 | – | – | –
3 | CNC(=S)NCCc1cccc2ccc(OC)nc12 | 2 | 0.1 | 90 | 0.1 | –
4 | COC(=O)NCCc1cccc2ccc(OC)nc12 | 7 | 0.3 | > 1000 | 0.4 | –
5 | CCNC(=O)NCCc1cccc2ccc(OC)nc12 | 0.8 | 0.09 | 9.5 | 0.2 | –
6 | COc1cnc2cccc(CCNC(=O)CF)c2c1 | 29 | 6 | – | – | –
7 | COc1cnc2cccc(CCNC(N)=O)c2c1 | 315 | 40 | – | – | –
8 | COc1cnc2cccc(CCNC(=O)C3CC3)c2c1 | 124 | 26 | – | – | –
9 | COc1ccc2ccc(CCNC(C)=O)cc2n1 | 58 | 22 | – | – | –

The remaining lines, values ahead:

Row | Ki [1] [nM] | Ki [2] [nM] | EC50 [3] [nM] | EC50 [4] [nM] | Ratio Ki (Homo sapiens) | Compound
10 | > 10000 | 250 | – | – | – | CNC(=S)NCCc1cccc2ncc(OC)cc12
11 | 60 | 4 | – | – | – | COc1cnc2cccc(CCNC(C)=O)c2c1
12 | 0.6 | 0.09 | 19 | 0.09 | – | CNC(=O)NCCc1cccc2ccc(OC)nc12
13 | 4 | 0.4 | 31 | 1.1 | – | CCNC(=S)NCCc1cccc2ccc(OC)nc12
14 | > 10000 | 430 | – | – | – | COC(=O)NCCc1cccc2ncc(OC)cc12
15 | 0.3 | 0.2 | 0.8 | 0.2 | – | COc1ccc2cccc(CCNC(C)=O)c2n1
16 | 2 | 0.2 | 1620 | 0.2 | – | COc1ccc2cccc(CCNC(N)=O)c2n1
17 | 8 | 0.3 | 65 | 0.7 | 27 | CNC(=O)CCc1cccc2ccc(OC)nc12
18 | 34 | 0.5 | – | – | 86 | COc1ccc2cccc(CCC(=O)NC3CC3)c2n1
19 | 690 | 550 | – | – | – | CCNC(=S)NCCc1cccc2ncc(OC)cc12
